This note sets out measurements from ChEMBL document CHEMBL3301562, “MMV Box screening against Plasmodium falciparum protein kinases and aminoacyl tRNA synthetases”.

For orientation: IC50 means the midpoint of a concentration-inhibition curve.

Holding throughout (assay type): functional
The target of assay [1] is T1, Calcium-dependent protein kinase 4 (Plasmodium falciparum (isolate 3D7), UniProt Q8IBS5).
T1 sequence (Q8IBS5 whole entry): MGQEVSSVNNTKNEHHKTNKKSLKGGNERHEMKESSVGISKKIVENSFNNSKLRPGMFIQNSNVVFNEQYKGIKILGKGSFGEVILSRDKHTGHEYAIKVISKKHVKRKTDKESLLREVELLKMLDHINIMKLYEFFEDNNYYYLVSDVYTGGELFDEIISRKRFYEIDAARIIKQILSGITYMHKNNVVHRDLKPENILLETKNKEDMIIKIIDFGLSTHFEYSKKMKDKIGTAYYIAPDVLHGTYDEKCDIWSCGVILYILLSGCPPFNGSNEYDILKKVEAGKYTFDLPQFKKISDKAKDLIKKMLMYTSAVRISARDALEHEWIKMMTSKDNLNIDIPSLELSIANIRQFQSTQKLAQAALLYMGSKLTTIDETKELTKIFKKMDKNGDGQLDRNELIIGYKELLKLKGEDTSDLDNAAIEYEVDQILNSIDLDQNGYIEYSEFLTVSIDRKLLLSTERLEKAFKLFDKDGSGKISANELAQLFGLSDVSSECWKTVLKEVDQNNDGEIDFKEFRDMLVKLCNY
The assay can be described thus: MMV: CDPK4 Protein kinase inhibition assay using recombinant PfCDPK4, syntide2 peptide substrate, ATP and KinaseGlo to measure % inhibition at 1 uM MMV box compound. In general terms: In Kinase-Glo more light means more ATP remaining.

In a further assay the target is Lysine--tRNA ligase (Plasmodium falciparum (isolate 3D7), UniProt Q8IDJ8). Nature of the assay: MMV: KRS recombinant Plasmodium falciparum Lysyl-tRNA-synthetase, assay with yeast tRNA, ATP, and lysine and 3 uM MMV malaria box compound, assay read out with kinase glo as % inhibition.
In a further assay the target is T2, Proline--tRNA ligase (Plasmodium falciparum (isolate 3D7), UniProt Q8I5R7).
T2 sequence (Q8I5R7 whole entry): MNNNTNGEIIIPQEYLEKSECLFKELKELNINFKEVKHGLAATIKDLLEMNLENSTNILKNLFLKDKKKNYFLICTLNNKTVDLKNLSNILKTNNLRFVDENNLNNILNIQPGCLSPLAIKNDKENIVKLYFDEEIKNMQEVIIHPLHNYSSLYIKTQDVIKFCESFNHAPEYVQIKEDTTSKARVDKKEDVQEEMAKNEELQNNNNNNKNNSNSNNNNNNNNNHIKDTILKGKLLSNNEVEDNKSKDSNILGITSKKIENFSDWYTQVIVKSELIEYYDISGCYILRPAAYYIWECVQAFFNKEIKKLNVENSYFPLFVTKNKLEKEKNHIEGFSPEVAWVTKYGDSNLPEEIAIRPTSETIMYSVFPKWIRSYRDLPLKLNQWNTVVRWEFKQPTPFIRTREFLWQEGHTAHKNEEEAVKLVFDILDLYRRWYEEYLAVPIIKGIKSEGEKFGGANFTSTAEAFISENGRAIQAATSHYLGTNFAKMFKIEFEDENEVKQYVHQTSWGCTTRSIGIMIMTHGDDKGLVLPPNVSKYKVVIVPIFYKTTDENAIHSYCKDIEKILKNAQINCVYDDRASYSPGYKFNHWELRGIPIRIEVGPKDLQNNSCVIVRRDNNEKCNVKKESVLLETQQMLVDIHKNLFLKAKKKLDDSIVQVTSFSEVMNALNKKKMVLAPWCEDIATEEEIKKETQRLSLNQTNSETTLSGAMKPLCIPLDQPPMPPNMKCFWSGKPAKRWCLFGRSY
Nature of the assay: MMV: ProRS recombinant Plasmodium falciparum Prolyl-tRNA-synthetase, assay with yeast tRNA, ATP, and proline and 3 uM MMV malaria box compound, assay read out with kinase glo as % inhibition.

In assay [2] the target is Calcium-dependent protein kinase 1 (Plasmodium falciparum, UniProt P62344). The assay can be described thus: MMV: CDPK1 Protein kinase inhibition assay using recombinant PfCDPK1, syntide 2 peptide substrate, ATP and KinaseGlo to measure % inhibition at 1 uM MMV box compound.
For assay [3], the target named is T3, Cdk-related protein kinase 6 (Plasmodium falciparum, UniProt O77239).
T3 sequence (O77239 whole entry): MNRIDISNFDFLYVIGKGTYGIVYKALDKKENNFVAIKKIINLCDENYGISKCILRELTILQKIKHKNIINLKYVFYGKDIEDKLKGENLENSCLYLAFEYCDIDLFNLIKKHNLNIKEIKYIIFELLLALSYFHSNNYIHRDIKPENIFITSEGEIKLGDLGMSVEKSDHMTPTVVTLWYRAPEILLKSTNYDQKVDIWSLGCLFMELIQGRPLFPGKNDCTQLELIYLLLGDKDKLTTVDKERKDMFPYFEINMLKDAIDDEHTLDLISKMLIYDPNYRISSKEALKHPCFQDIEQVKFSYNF
The assay can be described thus: Final concentrations were 1.5 uM ATP, 5 mM MnCl2, and 15 ug/ml PK6 in a buffer of 100 mM Tris-HCl (pH 7.5). 50 ug/mL MBP was provided as the substrate; 10 uM staurosporine was used as a control inhibitor. Incubation time was 3 hours and 40 minutes.The catalytic activity of each kinase was considered proportional to ATP consumed, as determined from measurements of residual [ATP] with the luciferase-based reagent Kinase-Glo (Promega) following incubation. Luminescence (proportional to residual [ATP]) was measured on the plate readers FLx800 (BioTek Instruments, Winooski, VT, USA) and MicroBeta2.

The target of assay [4] is T4, Mitogen-activated protein kinase (Plasmodium falciparum, UniProt Q25917).
T4 sequence (Q25917 whole entry): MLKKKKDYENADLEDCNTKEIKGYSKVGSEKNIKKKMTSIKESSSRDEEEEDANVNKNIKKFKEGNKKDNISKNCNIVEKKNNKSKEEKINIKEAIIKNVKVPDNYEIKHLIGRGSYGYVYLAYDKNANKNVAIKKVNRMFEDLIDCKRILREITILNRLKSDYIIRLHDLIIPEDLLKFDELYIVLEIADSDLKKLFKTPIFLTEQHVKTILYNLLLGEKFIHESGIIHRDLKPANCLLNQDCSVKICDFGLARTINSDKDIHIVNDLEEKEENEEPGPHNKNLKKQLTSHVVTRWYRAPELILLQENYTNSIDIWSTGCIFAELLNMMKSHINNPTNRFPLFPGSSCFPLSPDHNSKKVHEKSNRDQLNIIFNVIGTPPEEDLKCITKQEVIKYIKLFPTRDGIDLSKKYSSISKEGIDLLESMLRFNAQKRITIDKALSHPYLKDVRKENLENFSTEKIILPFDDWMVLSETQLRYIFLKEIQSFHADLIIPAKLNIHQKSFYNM
Nature of the assay: Final concentrations were 1 uM ATP, 0.5 mM DTT, 1 mM MgCl2, 0.5 mg/mL BSA, and 10 ug/ml MAP2 in a buffer of 50 mM HEPES (pH 7.0). 0.5 mg/mL histone III-S served as the substrate (13); 100 uM AMP-PNP, an ATP analog, was used as a control inhibitor. Incubation time was 4 hours.

Assay [5] has as its target T5, Putative uncharacterized protein pk7 (Plasmodium falciparum, UniProt O96214).
T5 sequence (O96214 whole entry): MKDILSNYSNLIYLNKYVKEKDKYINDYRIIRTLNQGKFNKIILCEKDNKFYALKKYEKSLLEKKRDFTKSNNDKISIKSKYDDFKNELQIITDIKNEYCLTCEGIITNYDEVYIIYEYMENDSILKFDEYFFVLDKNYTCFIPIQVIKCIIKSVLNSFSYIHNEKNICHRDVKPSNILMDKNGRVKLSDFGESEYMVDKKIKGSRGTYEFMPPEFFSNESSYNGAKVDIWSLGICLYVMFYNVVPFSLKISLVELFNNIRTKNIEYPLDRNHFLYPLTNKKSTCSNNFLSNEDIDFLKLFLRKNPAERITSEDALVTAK
Nature of the assay: Final concentrations were 1 uM ATP, 2 mM DTT, 20 mM MgCl2, 2 mM MnCl2, 0.01% BSA, and 6 ug/ml PK7, in a buffer of 20 mM Tris-HCl (pH 7.5). The enzyme itself was the only substrate present (since autophosphorylation occurs); 100 uM 1NA-PP1 was used as a control inhibitor. Incubation time was 3 hours.

Lysine--tRNA ligase, sequence (Q8IDJ8 whole entry): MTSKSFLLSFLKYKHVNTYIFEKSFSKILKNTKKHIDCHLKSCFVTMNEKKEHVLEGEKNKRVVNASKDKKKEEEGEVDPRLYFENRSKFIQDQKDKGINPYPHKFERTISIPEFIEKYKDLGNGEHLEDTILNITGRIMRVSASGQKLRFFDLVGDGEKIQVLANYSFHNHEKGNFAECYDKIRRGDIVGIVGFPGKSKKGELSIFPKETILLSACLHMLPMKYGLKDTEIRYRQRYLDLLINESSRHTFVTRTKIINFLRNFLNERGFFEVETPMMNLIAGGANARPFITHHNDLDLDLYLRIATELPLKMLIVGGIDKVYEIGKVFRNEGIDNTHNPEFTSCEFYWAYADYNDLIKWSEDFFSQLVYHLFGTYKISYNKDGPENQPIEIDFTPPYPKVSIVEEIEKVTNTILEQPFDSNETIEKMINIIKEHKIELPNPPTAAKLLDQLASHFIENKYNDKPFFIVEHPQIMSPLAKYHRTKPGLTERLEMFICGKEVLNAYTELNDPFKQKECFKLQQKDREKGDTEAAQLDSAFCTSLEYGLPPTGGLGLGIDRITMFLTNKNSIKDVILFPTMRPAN
Calcium-dependent protein kinase 1, sequence (P62344 whole entry): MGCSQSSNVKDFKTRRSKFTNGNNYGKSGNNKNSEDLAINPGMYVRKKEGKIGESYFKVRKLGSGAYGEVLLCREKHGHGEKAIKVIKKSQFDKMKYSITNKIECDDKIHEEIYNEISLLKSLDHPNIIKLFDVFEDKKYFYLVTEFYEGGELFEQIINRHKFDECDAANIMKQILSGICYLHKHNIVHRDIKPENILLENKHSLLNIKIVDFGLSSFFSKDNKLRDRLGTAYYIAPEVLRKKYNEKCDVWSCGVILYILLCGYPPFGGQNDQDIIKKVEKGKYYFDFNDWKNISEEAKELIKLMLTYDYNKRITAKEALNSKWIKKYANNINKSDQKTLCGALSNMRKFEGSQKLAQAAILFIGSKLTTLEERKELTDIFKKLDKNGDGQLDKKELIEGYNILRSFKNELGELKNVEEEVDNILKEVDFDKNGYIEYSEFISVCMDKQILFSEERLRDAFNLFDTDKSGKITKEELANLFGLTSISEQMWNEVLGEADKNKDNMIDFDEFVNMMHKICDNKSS

As to `COc1cccc(O)c1CN1CCC2(CCCN(Cc3ccc(F)cc3)C2)C1` (stereo not given), the IC50 in assay [1] is over 1 µM; at Lysine--tRNA ligase, over 2.5 µM; on Proline--tRNA ligase, over 2.5 µM; in assay [2], over 1 µM; in assay [3], over 1 µM; in assay [4], over 1 µM. The same molecule returned an IC50 in assay [5] of over 1 µM.

For `O=C(NCc1ccco1)C1CCN(S(=O)(=O)c2ccc(Cl)cc2)CC1`, the IC50 in assay [1] was over 1 µM; at Lysine--tRNA ligase, over 2.5 µM; on Proline--tRNA ligase, over 2.5 µM; in assay [2], over 1 µM; in assay [3] it was over 1 µM; in assay [4], over 1 µM. This molecule also yielded an IC50 in assay [5] of over 1 µM.

For the molecule `FC(F)(F)c1ccc(Nc2nnnc3ccccc23)cc1`, the IC50 was over 1 µM in assay [1]; over 2.5 µM on Lysine--tRNA ligase; over 2.5 µM on Proline--tRNA ligase; over 1 µM in assay [2]; over 1 µM in assay [3]; over 1 µM in assay [4]. This molecule also came in with an IC50 in assay [5] of over 1 µM.

On to `COc1cccc(NC(=O)Cn2c(C)c(C#N)c3ccccc32)c1`, for which the IC50 is over 1 µM in assay [1]; over 2.5 µM on Lysine--tRNA ligase; over 2.5 µM at Proline--tRNA ligase; over 1 µM in assay [2]; over 1 µM in assay [3]; over 1 µM in assay [4]. This molecule also had an IC50 in assay [5] of over 1 µM.

For the molecule `CC(C)=CCN1CCC(C(=O)Nc2ccc(-c3nc4ccccc4[nH]3)cc2)CC1`, the IC50 is over 1 µM in assay [1]; over 2.5 µM on Lysine--tRNA ligase; over 2.5 µM at Proline--tRNA ligase; over 1 µM in assay [2]; over 1 µM in assay [3]; over 1 µM in assay [4]. Also, in assay [5], the half-inhibitory concentration (IC50) was over 1 µM.

Take `O=C(CCc1ccco1)NC1CCN(CC2(c3ccc(Cl)cc3)CCC2)CC1`: the IC50 in assay [1] is over 1 µM; at Lysine--tRNA ligase, over 2.5 µM; on Proline--tRNA ligase it was over 2.5 µM; in assay [2] it was over 1 µM; in assay [3], over 1 µM; in assay [4], over 1 µM. The molecule further showed an IC50 in assay [5] of over 1 µM.

Consider `CCN1CCN(c2cc(C)c3cc(NC(=O)c4ccc(OC)c(OC)c4)ccc3n2)CC1`, for which the IC50 is over 1 µM in assay [1]; over 2.5 µM at Lysine--tRNA ligase; over 2.5 µM at Proline--tRNA ligase; over 1 µM in assay [2]; over 1 µM in assay [3]; over 1 µM in assay [4]. The molecule further displayed an IC50 in assay [5] of over 1 µM.

As to `COc1ccc(C(=O)Nc2ccc(Cl)cc2C(=O)Nc2ccncc2)cc1`, the IC50 was over 1 µM in assay [1]; over 2.5 µM on Lysine--tRNA ligase; over 2.5 µM at Proline--tRNA ligase; over 1 µM in assay [2]; over 1 µM in assay [3]; over 1 µM in assay [4]. For the same molecule, in assay [5], the IC50 was over 1 µM.

As for `CN(C)c1ccc(-c2nc3cc(N)ccc3[nH]2)cc1`, the IC50 in assay [1] was over 1 µM; at Lysine--tRNA ligase it was over 2.5 µM; on Proline--tRNA ligase, over 2.5 µM; in assay [2], over 1 µM; in assay [3], over 1 µM; in assay [4], over 1 µM. Moreover, the IC50 in assay [5] is over 1 µM.

With `O=C(CSc1ccc2nnc(-c3cccc(F)c3)n2n1)Nc1ccc2c(c1)OCO2`, the IC50 in assay [1] was over 1 µM; at Lysine--tRNA ligase, over 2.5 µM; on Proline--tRNA ligase, over 2.5 µM; in assay [2], over 1 µM; in assay [3], over 1 µM; in assay [4], over 1 µM. This molecule also returned an IC50 in assay [5] of over 1 µM.

As for `Cc1c(C)n(Cc2ccc(F)cc2)c2ccc(C(=O)NCc3ccco3)cc12`, the IC50 in assay [1] was over 1 µM; on Lysine--tRNA ligase, over 2.5 µM; on Proline--tRNA ligase, over 2.5 µM; in assay [2], over 1 µM; in assay [3] it was over 1 µM; in assay [4], over 1 µM. Besides, in assay [5], the IC50 is over 1 µM.

On to `CCCCNCC(O)(c1ccc(Cl)cc1)c1ccc(Cl)cc1`, for which the IC50 in assay [1] is over 1 µM; at Lysine--tRNA ligase it was over 2.5 µM; at Proline--tRNA ligase, over 2.5 µM; in assay [2] it was over 1 µM; in assay [3] it was over 1 µM; in assay [4], over 1 µM. Moreover, the IC50 in assay [5] was over 1 µM.

Turning to `O=C(Nc1cccc(C(F)(F)F)c1)c1cc(Cl)ccc1O`, the IC50 was over 1 µM in assay [1]; over 2.5 µM at Lysine--tRNA ligase; over 2.5 µM at Proline--tRNA ligase; over 1 µM in assay [2]; over 1 µM in assay [3]; over 1 µM in assay [4]. Further, in assay [5], the IC50 is over 1 µM.

In the case of `CCOc1cccc2sc(N(Cc3cccnc3)C(=O)C3CCCCC3)nc12`, the IC50 is over 1 µM in assay [1]; over 2.5 µM on Lysine--tRNA ligase; over 2.5 µM at Proline--tRNA ligase; over 1 µM in assay [2]; over 1 µM in assay [3]; over 1 µM in assay [4]. The molecule further displayed an IC50 in assay [5] of over 1 µM.

For the molecule `O=C(Nc1ccccc1O)c1ccc(-c2ccc(Cl)cc2Cl)o1`, the IC50 in assay [1] is over 1 µM; at Lysine--tRNA ligase it was over 2.5 µM; on Proline--tRNA ligase, over 2.5 µM; in assay [2], over 1 µM; in assay [3], over 1 µM; in assay [4], over 1 µM. In assay [5], the IC50 is over 1 µM.
